In ChEMBL document CHEMBL5291721, “A preclinical secondary pharmacology resource illuminates target-adverse drug reaction associations of marketed drugs” (Nat Commun, 2023):

What was measured:
[1] = target: T1, Adenosine receptor A3 (Homo sapiens, UniProt P0DMS8)
T1 sequence (P0DMS8 whole entry): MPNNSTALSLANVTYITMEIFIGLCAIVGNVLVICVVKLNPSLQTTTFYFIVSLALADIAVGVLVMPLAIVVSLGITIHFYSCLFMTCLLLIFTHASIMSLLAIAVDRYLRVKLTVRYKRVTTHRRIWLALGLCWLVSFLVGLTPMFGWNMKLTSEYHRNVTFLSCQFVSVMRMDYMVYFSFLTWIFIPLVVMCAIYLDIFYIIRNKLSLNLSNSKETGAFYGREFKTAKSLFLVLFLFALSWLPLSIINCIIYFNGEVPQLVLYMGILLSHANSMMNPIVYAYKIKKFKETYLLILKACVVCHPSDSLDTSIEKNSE

[2] = target: T2, Muscarinic acetylcholine receptor M1 (Homo sapiens, UniProt P11229); format: functional, cell-based
T2 sequence (P11229 whole entry): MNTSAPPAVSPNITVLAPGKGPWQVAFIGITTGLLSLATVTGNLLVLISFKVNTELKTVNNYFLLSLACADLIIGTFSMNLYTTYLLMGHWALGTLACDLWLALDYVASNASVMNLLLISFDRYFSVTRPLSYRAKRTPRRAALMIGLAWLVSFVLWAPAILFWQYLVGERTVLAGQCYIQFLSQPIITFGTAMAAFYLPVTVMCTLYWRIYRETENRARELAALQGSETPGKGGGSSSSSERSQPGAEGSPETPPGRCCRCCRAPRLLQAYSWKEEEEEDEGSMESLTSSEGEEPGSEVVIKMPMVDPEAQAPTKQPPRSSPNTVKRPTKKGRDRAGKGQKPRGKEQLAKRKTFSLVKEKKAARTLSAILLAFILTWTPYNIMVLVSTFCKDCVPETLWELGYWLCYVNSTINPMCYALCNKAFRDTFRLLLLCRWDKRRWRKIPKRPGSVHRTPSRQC

[3] = target: D(3) dopamine receptor (Homo sapiens, UniProt P35462)
[4] = target: Prothrombin (Homo sapiens, UniProt P00734); format: functional
[5] = target: Mu-type opioid receptor (Homo sapiens, UniProt P35372)
[6] = target: cGMP-inhibited 3',5'-cyclic phosphodiesterase 3A (Homo sapiens, UniProt Q14432); format: functional
[7] = target: 3',5'-cyclic-AMP phosphodiesterase 4A (Homo sapiens, UniProt P27815); format: functional
[8] = target: Sodium-dependent noradrenaline transporter (Homo sapiens, UniProt P23975)
[9] = target: T3, B2 bradykinin receptor (Homo sapiens, UniProt P30411)
T3 sequence (P30411 whole entry): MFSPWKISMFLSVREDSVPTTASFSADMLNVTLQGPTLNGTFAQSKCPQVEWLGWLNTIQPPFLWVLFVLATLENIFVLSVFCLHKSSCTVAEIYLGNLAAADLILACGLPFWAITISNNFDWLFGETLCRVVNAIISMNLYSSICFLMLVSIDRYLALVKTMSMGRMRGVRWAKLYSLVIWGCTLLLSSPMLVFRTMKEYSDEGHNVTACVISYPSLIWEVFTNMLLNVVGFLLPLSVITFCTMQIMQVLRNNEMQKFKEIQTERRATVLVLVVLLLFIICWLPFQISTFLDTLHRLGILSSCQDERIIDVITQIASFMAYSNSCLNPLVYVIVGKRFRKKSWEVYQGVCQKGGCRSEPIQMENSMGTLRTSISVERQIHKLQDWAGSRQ

[10] = target: Voltage-dependent L-type calcium channel subunit alpha-1C (Rattus norvegicus, UniProt P22002); format: functional
[11] = target: Cannabinoid receptor 1 (Homo sapiens, UniProt P21554)
Note: assay procedure not described here.

D(3) dopamine receptor, sequence (P35462 whole entry): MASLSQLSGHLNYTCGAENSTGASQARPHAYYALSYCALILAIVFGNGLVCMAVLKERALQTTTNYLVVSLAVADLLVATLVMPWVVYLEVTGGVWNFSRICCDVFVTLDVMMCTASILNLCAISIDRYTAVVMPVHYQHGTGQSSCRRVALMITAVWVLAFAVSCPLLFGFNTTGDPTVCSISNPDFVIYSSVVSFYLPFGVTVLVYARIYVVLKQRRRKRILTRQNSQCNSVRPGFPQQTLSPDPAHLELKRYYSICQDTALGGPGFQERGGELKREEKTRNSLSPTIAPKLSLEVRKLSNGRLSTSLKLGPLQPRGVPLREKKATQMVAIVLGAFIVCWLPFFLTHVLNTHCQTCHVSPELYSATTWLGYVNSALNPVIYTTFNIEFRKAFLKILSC
Sodium-dependent noradrenaline transporter, sequence (P23975 whole entry): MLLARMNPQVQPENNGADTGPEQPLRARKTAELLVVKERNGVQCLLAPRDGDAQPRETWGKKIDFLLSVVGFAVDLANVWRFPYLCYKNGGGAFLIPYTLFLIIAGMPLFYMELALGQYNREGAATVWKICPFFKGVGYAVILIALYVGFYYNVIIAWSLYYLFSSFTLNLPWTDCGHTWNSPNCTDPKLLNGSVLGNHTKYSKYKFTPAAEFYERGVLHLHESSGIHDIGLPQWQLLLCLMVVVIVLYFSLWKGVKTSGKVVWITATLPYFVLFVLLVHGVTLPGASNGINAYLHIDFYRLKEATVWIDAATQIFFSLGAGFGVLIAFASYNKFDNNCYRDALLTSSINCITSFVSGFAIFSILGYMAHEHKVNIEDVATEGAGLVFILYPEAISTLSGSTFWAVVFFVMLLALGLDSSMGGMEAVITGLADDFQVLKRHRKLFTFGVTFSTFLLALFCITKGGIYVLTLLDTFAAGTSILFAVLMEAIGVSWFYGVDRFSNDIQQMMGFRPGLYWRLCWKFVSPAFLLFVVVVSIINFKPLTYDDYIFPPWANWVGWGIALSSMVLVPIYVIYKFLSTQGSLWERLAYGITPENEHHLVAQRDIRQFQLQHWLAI
cGMP-inhibited 3',5'-cyclic phosphodiesterase 3A, sequence (Q14432 whole entry): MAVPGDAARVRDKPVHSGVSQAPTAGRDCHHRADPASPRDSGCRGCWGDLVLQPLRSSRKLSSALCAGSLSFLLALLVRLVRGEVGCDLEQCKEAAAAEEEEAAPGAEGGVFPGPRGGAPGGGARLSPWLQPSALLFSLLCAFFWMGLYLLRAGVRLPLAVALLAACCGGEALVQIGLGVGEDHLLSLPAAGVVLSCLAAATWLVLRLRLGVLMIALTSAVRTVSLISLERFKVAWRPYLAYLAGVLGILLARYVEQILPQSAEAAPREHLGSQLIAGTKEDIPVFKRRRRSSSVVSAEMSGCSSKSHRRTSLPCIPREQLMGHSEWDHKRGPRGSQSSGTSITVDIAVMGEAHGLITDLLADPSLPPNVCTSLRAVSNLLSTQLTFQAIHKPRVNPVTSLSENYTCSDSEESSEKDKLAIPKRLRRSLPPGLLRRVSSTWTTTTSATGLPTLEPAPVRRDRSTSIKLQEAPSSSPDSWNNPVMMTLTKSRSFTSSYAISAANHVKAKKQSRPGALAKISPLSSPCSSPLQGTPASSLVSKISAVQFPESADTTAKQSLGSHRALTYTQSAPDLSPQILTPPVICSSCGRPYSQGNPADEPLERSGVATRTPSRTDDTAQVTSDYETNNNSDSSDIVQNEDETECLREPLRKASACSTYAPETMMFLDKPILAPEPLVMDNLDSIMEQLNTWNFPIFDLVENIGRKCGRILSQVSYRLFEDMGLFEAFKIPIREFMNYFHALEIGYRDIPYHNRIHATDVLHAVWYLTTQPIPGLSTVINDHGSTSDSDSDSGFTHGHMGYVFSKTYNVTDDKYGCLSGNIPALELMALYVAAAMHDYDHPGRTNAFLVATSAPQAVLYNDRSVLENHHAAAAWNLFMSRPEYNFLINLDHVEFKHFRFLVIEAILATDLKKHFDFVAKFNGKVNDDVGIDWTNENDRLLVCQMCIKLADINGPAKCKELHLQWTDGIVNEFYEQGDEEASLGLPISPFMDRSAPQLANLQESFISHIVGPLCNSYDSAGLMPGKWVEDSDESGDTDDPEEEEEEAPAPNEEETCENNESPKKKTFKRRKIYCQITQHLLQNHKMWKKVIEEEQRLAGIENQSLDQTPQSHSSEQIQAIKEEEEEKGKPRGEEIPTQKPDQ
3',5'-cyclic-AMP phosphodiesterase 4A, sequence (P27815 whole entry): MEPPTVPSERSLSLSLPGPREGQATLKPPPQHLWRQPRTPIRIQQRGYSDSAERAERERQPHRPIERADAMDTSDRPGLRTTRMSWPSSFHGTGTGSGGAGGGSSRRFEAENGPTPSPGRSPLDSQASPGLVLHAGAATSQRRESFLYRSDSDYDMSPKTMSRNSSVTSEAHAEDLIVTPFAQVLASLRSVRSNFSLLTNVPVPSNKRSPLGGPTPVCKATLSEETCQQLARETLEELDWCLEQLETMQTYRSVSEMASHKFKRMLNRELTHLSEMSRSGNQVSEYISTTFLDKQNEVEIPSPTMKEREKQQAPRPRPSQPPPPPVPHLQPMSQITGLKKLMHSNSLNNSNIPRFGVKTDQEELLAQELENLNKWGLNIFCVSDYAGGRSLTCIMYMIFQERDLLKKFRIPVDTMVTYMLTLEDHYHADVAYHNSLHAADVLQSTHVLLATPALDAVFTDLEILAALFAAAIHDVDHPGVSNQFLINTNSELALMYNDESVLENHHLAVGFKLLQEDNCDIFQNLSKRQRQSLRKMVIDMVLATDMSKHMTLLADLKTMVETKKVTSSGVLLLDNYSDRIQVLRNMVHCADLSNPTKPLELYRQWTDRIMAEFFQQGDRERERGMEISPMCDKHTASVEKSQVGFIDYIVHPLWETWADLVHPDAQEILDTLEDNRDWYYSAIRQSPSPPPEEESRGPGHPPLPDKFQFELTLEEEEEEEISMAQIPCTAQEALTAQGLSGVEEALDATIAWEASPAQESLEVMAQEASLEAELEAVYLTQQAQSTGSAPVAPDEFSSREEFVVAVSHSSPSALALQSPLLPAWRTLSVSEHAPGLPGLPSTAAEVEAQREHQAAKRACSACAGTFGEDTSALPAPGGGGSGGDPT
Mu-type opioid receptor, sequence (P35372 whole entry): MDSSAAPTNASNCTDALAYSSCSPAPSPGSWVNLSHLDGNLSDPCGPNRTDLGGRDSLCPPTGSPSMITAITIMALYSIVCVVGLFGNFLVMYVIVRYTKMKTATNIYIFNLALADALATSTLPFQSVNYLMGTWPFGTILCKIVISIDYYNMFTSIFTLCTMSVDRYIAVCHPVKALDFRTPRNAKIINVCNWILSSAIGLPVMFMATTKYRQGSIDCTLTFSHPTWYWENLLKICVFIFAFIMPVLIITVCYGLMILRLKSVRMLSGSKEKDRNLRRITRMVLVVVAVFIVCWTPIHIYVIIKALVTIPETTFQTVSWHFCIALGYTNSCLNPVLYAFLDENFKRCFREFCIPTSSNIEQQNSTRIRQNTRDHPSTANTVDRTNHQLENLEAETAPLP
Cannabinoid receptor 1, sequence (P21554 whole entry): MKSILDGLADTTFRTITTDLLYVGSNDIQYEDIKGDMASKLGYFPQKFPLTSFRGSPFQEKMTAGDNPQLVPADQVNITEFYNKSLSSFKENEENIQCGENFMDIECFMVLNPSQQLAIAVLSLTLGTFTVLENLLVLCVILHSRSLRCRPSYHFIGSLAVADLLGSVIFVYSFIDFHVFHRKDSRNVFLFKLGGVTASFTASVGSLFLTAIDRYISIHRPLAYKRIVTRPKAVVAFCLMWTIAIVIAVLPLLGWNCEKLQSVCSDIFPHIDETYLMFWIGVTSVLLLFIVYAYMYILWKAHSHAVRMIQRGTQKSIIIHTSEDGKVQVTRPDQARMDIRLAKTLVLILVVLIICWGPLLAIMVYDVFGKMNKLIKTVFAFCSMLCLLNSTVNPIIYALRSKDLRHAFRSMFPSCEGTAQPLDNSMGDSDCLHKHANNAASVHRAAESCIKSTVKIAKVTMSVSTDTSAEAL

| SMILES | AC50 [1] | AC50 [2] | AC50 [3] | AC50 [4] | AC50 [5] | AC50 [6] | AC50 [7] | AC50 [8] | AC50 [9] | AC50 [10] | AC50 [11] |
| --- | --- | --- | --- | --- | --- | --- | --- | --- | --- | --- | --- |
| N=C(N)NCC1COc2ccccc2O1 (centres undefined) [GUANOXAN] | > 30 µM | > 30 µM | 8.54 µM | > 30 µM | > 30 µM | > 30 µM | > 30 µM | 5.56 µM | – | – | – |
| CN(C)CCN(Cc1ccccc1)c1ccccn1 [TRIPELENNAMINE] | > 30 µM | > 30 µM | – | > 30 µM | > 30 µM | > 30 µM | > 30 µM | 2.62 µM | > 10 µM | > 10 µM | > 10 µM |
| NC(=O)C1(N2CCCCC2)CCN(CCCN2c3ccccc3CCc3ccccc32)CC1 [CARPIPRAMINE] | > 30 µM | 22 µM | 0.0207 µM | > 30 µM | 0.342 µM | > 30 µM | > 30 µM | 11.7 µM | – | – | – |
| CC(C)NC[C@H](O)COc1ccc(O)cc1 [PRENALTEROL] | > 30 µM | > 30 µM | > 30 µM | > 30 µM | > 30 µM | > 30 µM | > 30 µM | 4.55 µM | – | – | – |
| Cc1cc(C)cc(OCC2CNC(=O)O2)c1 (centres undefined) [METAXALONE] | > 30 µM | > 30 µM | > 30 µM | > 30 µM | > 30 µM | > 30 µM | > 30 µM | 10.2 µM | – | – | – |
| N#Cc1ccnc(N2C(=O)CC[C@H]2C(=O)N(c2cncc(F)c2)[C@H](C(=O)NC2CC(F)(F)C2)c2ccccc2Cl)c1 [IVOSIDENIB] | > 30 µM | > 30 µM | > 30 µM | > 30 µM | > 30 µM | > 30 µM | > 30 µM | > 30 µM | – | – | – |
| NC(=O)C1(N2CCCCC2)CCN(CCCC(=O)c2ccc(F)cc2)CC1 [PIPAMPERONE] | > 30 µM | > 30 µM | 1.77 µM | > 30 µM | 7.02 µM | > 30 µM | > 30 µM | > 30 µM | – | – | – |
| C[C@]12CC[C@@H]3c4ccc(OC(=O)N(CCCl)CCCl)cc4CC[C@H]3[C@@H]1CC[C@@H]2OP(=O)(O)O [ESTRAMUSTINE PHOSPHATE] | 7.84 µM | > 30 µM | > 30 µM | > 30 µM | > 30 µM | > 30 µM | > 30 µM | > 30 µM | – | – | – |
| CC1=C(C/C=C(\C)CCC[C@H](C)CCC[C@H](C)CCCC(C)C)C(=O)c2ccccc2C1=O [PHYTONADIONE] | > 30 µM | > 30 µM | > 30 µM | > 30 µM | > 30 µM | 3.44 µM | 9.52 µM | > 30 µM | – | – | – |
| CCCCCCO[C@@H](C)c1cccc(-c2csc(NC(=O)c3cc(Cl)c(/C=C(\C)C(=O)O)c(Cl)c3)n2)c1OC [LUSUTROMBOPAG] | 0.334 µM | > 30 µM | 8.41 µM | 19.3 µM | > 30 µM | > 30 µM | 16.2 µM | > 30 µM | – | – | – |
| CC(C)Nc1cccnc1N1CCN(C(=O)c2cc3cc(NS(C)(=O)=O)ccc3[nH]2)CC1 [DELAVIRDINE] | 21.4 µM | > 30 µM | > 30 µM | > 30 µM | 13.9 µM | > 30 µM | > 30 µM | > 30 µM | – | – | – |
| Cc1cccc(C)c1NC(=O)c1cc(S(N)(=O)=O)c(Cl)cc1O [XIPAMIDE] | > 30 µM | > 30 µM | > 30 µM | > 30 µM | > 30 µM | > 30 µM | > 30 µM | > 30 µM | – | – | – |
| O=c1[nH]c2ccccc2n1CCN1CCN(c2cccc(C(F)(F)F)c2)CC1 [FLIBANSERIN] | 15.6 µM | 10.1 µM | 0.286 µM | > 10 µM | 1.3 µM | > 30 µM | > 30 µM | > 30 µM | – | – | – |
| CC(C)(Oc1ccc(Cl)cc1)C(=O)NC(=O)NCN1CCOCC1 [PLAFIBRIDE] | > 30 µM | > 30 µM | > 30 µM | > 30 µM | > 30 µM | > 30 µM | > 30 µM | > 30 µM | – | – | – |
